This note sets out measurements from US20250090626A1, “NEW PEPTIDE AND USES THEREOF” (Neo Cremar Co., Ltd., priority 2021, published 2025).

Type in all cases: cell-based, mouse
The subject of assay [1] is C2C12 cells. The experiment in a line: Myodifferentiation, Giemsa staining, root canal formation and fusion index. Particulars: 3 days. How it is done: When C2C12 cells were 70% grown, media were replaced with myodifferentiation medium added with MSTN protein (1 ng), Ac-MIF1 (1000 nM), and Ac-MIF1 (1000 nM)+MSTN protein (1 ng) from proliferation medium, followed by culture for 3 days.
When the cells grew more than 70% for differentiation of myoblasts into myocytes, they were cultured for 3 days by replacing with a differentiation medium (DMEM+2% FBS+1% P/S). The medium was replaced once daily, and the cells were cultured at 37° C.
The cell medium was removed, and the cells were washed with PBS. After washing, a methanol:PBS reagent in a 1:1 volume ratio was treated, followed by fixation for 2 minutes. Additionally, after a methanol:PBS reagent in a 2:1 volume ratio was added, fixation was followed for additional 2 minutes. After 2 minutes, 0.04% Giemsa reagent was added, and then the cells were left for 30 minutes, washed with PBS after 30 minutes, and observed under a microscope, with 3 photographs taken for each cell (300×). In the photographs taken, the number of fused nuclei in the root canal cells was counted, the number of nuclei of total cells was counted, and the number of fused nuclei was divided by the number of nuclei of the total cells to obtain the % value.

In assay [2] the test system is C2C12 cells. The experiment in a line: Protein expression of myodifferentiation and sarcopenia factors (Western blot, immunocytochemistry). As to conditions: C2C12 myodifferentiation, peptide-treated vs untreated. How it is done:
The medium of cultured C2C12 cells was removed and washed once with PBS. The washed cells were treated with 4% formaldehyde (Sigma), fixed for 15 minutes, then washed using PBS, added with 0.2% trypton X-100 (Sigma), and left for 5 minutes. After washing again using PBS, adding 1% normal goat serum, and leaving for 30 minutes, the primary antibody (MYOD, myogenin (MYOG):myosin light chain (MYL2); 1:50) was added to carry out a reaction at 4° C. for 14 hours. The antibodies were removed, washing was performed 3 times with PBS for 10 minutes, and then the cells were left with secondary antibody (Alexa Fluor 488 goat anti-Mouse & rabbit SFX kit t) for 1 hour. After 1 hour, the antibodies were removed, washing was performed with PBS for 10 minutes, the nuclei were stained with 4′,6-diamidino-2-phenylindol (DAPI), and the expression of the proteins was observed using fluorescence microscopy.
(1) The medium of cultured C2C12 cells was removed, followed by washing with PBS. After adding LIPA buffer and protease inhibitor to the washed cells, the proteins included in the supernatant were collected after centrifugation for 10 minutes at 12000 rpm. 40 μg of the extracted proteins were subjected to electrophoresis in 8 to 10% acrylamide gel and then transferred to a polyvinylidene fluoride (PVDF) membrane (Milipore). These were blocked with 3% skim milk or bovine serum albumin (BSA) at room temperature for 1 hour. Afterwards, primary antibody diluted in 1% skim milk or BSA (Pax7; 1:500, MYOD; 1:500, MYOG; 1:400, MYL2; 1:1000, MYH; 1:500, MSTN; 1:1000, β-actin; 1:1000, MuRF1; 1:400, and Atrogin; 1:1:400) was added and reacted at 4° C. for over 16 hours. After 16 hours, cells were washed three times with TBST (Tris-buffered saline with Tween 20) and reacted with secondary antibody with horseradish peroxidase (HRP) conjugated at room temperature for 1 hour. It was washed three times with TBST and developed after adding Super Signal West Pico Chemiluminescent Substrate.

A further assay concerns 3T3L1 cells. In words: 3T3L1 cell proliferation (MTT method). Particulars: 3T3L1, Ac-MIF1 1000 nM, 2 days, FIG. 13A. How it is done:
3T3L1 cells, mouse fibroblasts, were cultured in Dulbecco's Modified Eagle's Medium (DMEM)+10% fetal bovine serum (FBS)+1% penicillin/streptomycin (P/S). To validate the effect of MIF peptide, 3T3L1 cells (2×10^3 cells/ml) were placed in a 12-well cell culture dish, attached for 24 hours, and treated with MIF peptide (1000 nM) for 2 days, followed by observation of cell proliferation by MTT method. The medium was replaced every 2 days, and the cells were cultured at 37° C.
To validate cell proliferation, the culture medium of the cells was removed, the cells were washed with DMEM, 500 μl of MTT reagent (0.5 mg/ml) dissolved in phosphate buffered saline (PBS) was added to each well, and the cells were left at 37° C. for 1 hour. The reaction solution was removed, and 1000 μl of DMSO was added to each well. Purple formazan crystals were completely dissolved in DMSO, and the absorbance was measured at 540 nm.
On the technique in general: Formazan colour is commonly taken as a measure of viable cells.

No end group written: not given here.

With “Ac-VDFEAFWDWG [Ac-MIF1, MIF1 with N-terminus acetylated, 10 mer]”, the “fusion index, increase compared to untreated cells” value in the assay on C2C12 cells [1] (C2C12, differentiation medium including peptide) stood at 11%. For the same substance, the “root canal formation compared to untreated cells” value in the assay with C2C12 cells [1] (C2C12, differentiation medium) was “increased”. Moreover, the “fusion index compared to untreated cells” value with C2C12 cells [1] (C2C12, muscle differentiation medium, Ac-MIF1 1000 nM, FIG. 9) is listed as “increased”. In the assay on C2C12 cells [2], the ACVRIIB protein expression entry is “reduced”, the Atrogin1 protein expression entry is recorded as “reduced”, the MSTN protein expression entry is given as “reduced” and the MYH protein expression entry is listed as “increased”. For the same substance, in the assay on C2C12 cells [2], the MYOD protein expression result was “increased” and the MYOG protein expression entry is recorded as “increased”. Further, the “proliferation of 3T3L1 cells, decrease compared to cells without peptide treatment” value in the assay on 3T3L1 cells came out at 8%.
